Test results as given in patent publication US20190231884A1, “SYNTHETIC PULMONARY SURFACTANT COMPOSITION FOR TREATING LUNG CONDITIONS” (priority 2016, published 2019).
Converted amounts (≈) assume the structure as drawn.

Assays:
[1] = test system: M. tb X51 clinical isolate; assay: microbe, parasite or virus in culture; type: cell-based, Mycobacterium tuberculosis; details: for GROWTH UNITS (Day 8) / SUSCEPTIBILITY MIC99: X51
[2] = test system: M. tuberculosis H37Rv reference strain; assay: MGIT 960 mycobacterial growth inhibition, H37Rv; type: cell-based, Mycobacterium tuberculosis; details: for GROWTH UNITS (Day 8) / SUSCEPTIBILITY MIC99: H37Rv
[3] = Linezolid 1 μg/ml, growth control GU 400

SMILES: CC(=O)NC[C@H]1CN(c2ccc(N3CCOCC3)c(F)c2)C(=O)O1 [Linezolid, (S)-N-[[3-(3-fluoro-4-morpholinylpheny1)-2-oxo-5-oxazolidinyl]methyl] acetamide]
- MIC ([1]; Mycobacterium tuberculosis, read-out: Minimum Inhibitory Concentration): 1 µg/mL (≈ 2.96 µM)
- GROWTH UNITS (Day 8) ([1]; Linezolid 0.125 μg/ml): 9164
- SUSCEPTIBILITY MIC99 ([1]; Linezolid 0.125 μg/ml): − (the GU of the drug-containing tube were more than 400, the results were defined as showing resistance)
- GROWTH UNITS (Day 8) ([1]; Linezolid 0.25 μg/ml): 6727
- SUSCEPTIBILITY MIC99 ([1]; Linezolid 0.25 μg/ml): − (the GU of the drug-containing tube were more than 400, the results were defined as showing resistance)
- GROWTH UNITS (Day 8) ([1]; Linezolid 0.5 μg/ml): 714
- SUSCEPTIBILITY MIC99 ([1]; Linezolid 0.5 μg/ml): − (the GU of the drug-containing tube were more than 400, the results were defined as showing resistance)
- SUSCEPTIBILITY MIC99 ([1]; Linezolid 1 μg/ml): + (when the GU of the drug-containing tube were less than 400, the results were considered to show susceptibility)
- GROWTH UNITS (Day 8) [1, 3]: 0
- GROWTH UNITS (Day 8) ([2]; Linezolid 0.125 μg/ml): 12030
- SUSCEPTIBILITY MIC99 ([2]; Linezolid 0.125 μg/ml): − (the GU of the drug-containing tube were more than 400, the results were defined as showing resistance)
- GROWTH UNITS (Day 8) ([2]; Linezolid 0.25 μg/ml): 12878
- SUSCEPTIBILITY MIC99 ([2]; Linezolid 0.25 μg/ml): − (the GU of the drug-containing tube were more than 400, the results were defined as showing resistance)
- GROWTH UNITS (Day 8) ([2]; Linezolid 0.5 μg/ml): 4674
- SUSCEPTIBILITY MIC99 ([2]; Linezolid 0.5 μg/ml): − (the GU of the drug-containing tube were more than 400, the results were defined as showing resistance)
- SUSCEPTIBILITY MIC99 ([2]; Linezolid 1 μg/ml): + (when the GU of the drug-containing tube were less than 400, the results were considered to show susceptibility)
- GROWTH UNITS (Day 8) [2, 3]: 377
- MIC ([2]; Mycobacterium tuberculosis, H37Rv Strain, read-out: Minimum Inhibitory Concentration): 1 µg/mL (≈ 2.96 µM)
